In series [1] the test system is human lung cancer cell line H460. Nature of the series: Inhibition of growth of human lung cancer cell line H460. Format: cell-based. The following applies: NCI-H460, 72 hours, total protein/well. The text has this:
The results are in Table 2, below.

Series [2] concerns the target full length human purified recombinant pp60^c-src (Homo sapiens, UniProt P12931). Briefly: Inhibition of isolated Src (Lai et al. 1998 assay, intracellular-mimetic conditions). In kind it is biochemical.
Description: Subsequent to synthesis, several of the above compounds were tested for inhibition of the growth of human lung cancer cell line H460 and inhibition of isolated Src.
For series [3] the following is noted: mouse, in vivo, ip.
Description: These compounds were administered to SCID mice by intraperitoneal administration in tween80:EtOH.
Series [4] addresses T1, protein tyrosine phosphatase 1B (PTP-1B) (Homo sapiens, UniProt P18031).
T1 sequence (P18031 1-435): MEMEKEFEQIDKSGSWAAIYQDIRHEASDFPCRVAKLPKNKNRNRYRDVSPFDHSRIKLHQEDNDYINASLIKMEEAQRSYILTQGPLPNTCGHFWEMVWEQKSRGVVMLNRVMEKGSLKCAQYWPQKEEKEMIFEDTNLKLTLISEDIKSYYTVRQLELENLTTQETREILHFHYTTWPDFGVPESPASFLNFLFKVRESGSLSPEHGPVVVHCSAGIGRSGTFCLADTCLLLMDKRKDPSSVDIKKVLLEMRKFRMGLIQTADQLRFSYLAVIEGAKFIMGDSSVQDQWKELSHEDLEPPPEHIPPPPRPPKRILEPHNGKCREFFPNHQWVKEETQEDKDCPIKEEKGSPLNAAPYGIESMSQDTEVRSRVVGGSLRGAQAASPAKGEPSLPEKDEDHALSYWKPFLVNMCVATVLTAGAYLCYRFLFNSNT
Nature of the series: Inhibition of PTP-1B. In kind it is biochemical. The following applies: compound at 10 micromolar. The text has this: (§1) Blanks for a particular enzyme indicate that inhibition was not found.

Series [5] has as its target Epidermal Growth Factor Receptor Tyrosine Kinase (EGFRTK) (Homo sapiens, UniProt P00533). Briefly: Inhibition of EGFRTK. In kind it is biochemical. Particulars: compound at 10 micromolar.
Source text: as §1

The target in series [6] is T2, p56 lck (Homo sapiens, UniProt P06239). Briefly: Inhibition of p56 lck. Format: biochemical. Particulars: compound at 10 micromolar.
Source text: as §1

Series [7] concerns the target p55 fyn (Homo sapiens, UniProt P06241). Nature of the series: Inhibition of p55 fyn. Format: biochemical. Particulars: compound at 10 micromolar.
Source text: as §1

Series [8] concerns the target T2, p56 lck. Particulars: analyzed with the tyrosine kinase p56^lck; cited from earlier work.
The test system of series [9] is ovarian tumor cells (tumor N015) and abdominal carcinoma from patients. Briefly: Patient tumor cell culture, comparison with cancer drugs. In kind it is cell-based, human. The text has this:
The initial non-peptide Src inhibitors have also shown very encouraging results in four different series of cell culture assays. 1) In the NIH 60-tumor cell panel assay, broad activity (as one would expect for a Src inhibitor) was seen against the tumor cell lines, including the prostate lines. […] 3) The Src inhibitors were compared to the cancer drugs etoposide, taxol, doxorubicin, and cisplatin in ovarian tumors from three different patients and an abdominal carcinoma from another patient. […] 5) Two of the Src inhibitors were also tested for inhibition of ts v-Src stimulated LA25 cell growth. […] 6) Two of the Src inhibitors were also tested for inhibition of normal rat kidney cell growth.

Structures are written as SMILES. Read-outs that look alike come from different tables or passages of the source. A value given as a limit tells only on which side of the number the result lay.

p55 fyn, sequence (P06241 whole entry): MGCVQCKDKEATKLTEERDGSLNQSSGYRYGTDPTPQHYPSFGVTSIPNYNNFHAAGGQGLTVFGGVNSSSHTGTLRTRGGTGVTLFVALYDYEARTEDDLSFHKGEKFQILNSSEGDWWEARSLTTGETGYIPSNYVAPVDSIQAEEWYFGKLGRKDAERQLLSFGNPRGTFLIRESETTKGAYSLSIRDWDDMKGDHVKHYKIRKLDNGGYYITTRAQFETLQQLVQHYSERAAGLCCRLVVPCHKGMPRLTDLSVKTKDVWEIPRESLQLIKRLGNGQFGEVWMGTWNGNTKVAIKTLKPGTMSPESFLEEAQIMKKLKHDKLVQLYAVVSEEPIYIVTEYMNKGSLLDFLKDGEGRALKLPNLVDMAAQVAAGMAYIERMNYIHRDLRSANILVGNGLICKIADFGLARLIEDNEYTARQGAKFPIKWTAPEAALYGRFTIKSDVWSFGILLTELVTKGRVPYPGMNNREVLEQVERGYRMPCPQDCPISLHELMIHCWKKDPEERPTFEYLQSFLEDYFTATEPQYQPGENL
T2 sequence (P06239 whole entry, species assumed): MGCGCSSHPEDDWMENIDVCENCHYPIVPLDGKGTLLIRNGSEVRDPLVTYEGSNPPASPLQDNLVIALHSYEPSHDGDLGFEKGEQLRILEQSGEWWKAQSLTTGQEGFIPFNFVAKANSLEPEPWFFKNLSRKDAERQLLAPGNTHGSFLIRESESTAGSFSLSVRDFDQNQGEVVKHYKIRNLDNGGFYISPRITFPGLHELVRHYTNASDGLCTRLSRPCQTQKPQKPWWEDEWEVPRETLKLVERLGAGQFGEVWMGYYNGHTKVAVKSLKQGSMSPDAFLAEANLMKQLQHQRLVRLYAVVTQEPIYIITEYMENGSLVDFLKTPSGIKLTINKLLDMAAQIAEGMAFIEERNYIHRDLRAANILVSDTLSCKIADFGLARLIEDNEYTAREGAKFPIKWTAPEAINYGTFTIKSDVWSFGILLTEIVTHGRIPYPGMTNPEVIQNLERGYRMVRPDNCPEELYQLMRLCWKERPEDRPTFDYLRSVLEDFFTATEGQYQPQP
full length human purified recombinant pp60^c-src, sequence (P12931 whole entry): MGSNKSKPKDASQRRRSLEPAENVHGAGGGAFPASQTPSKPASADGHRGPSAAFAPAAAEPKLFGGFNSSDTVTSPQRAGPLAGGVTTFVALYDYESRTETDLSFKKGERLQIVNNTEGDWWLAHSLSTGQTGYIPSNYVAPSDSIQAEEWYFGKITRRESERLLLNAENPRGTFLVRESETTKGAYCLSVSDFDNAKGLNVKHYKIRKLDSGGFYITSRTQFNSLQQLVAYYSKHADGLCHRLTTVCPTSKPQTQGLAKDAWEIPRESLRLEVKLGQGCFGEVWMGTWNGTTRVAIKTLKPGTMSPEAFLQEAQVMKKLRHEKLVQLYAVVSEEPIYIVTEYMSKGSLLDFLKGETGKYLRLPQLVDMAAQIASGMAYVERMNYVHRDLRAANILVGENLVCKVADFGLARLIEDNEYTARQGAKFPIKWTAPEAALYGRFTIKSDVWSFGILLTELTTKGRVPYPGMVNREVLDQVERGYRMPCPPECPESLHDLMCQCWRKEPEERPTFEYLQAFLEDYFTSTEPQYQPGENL
Epidermal Growth Factor Receptor Tyrosine Kinase (EGFRTK), sequence (P00533 25-1210): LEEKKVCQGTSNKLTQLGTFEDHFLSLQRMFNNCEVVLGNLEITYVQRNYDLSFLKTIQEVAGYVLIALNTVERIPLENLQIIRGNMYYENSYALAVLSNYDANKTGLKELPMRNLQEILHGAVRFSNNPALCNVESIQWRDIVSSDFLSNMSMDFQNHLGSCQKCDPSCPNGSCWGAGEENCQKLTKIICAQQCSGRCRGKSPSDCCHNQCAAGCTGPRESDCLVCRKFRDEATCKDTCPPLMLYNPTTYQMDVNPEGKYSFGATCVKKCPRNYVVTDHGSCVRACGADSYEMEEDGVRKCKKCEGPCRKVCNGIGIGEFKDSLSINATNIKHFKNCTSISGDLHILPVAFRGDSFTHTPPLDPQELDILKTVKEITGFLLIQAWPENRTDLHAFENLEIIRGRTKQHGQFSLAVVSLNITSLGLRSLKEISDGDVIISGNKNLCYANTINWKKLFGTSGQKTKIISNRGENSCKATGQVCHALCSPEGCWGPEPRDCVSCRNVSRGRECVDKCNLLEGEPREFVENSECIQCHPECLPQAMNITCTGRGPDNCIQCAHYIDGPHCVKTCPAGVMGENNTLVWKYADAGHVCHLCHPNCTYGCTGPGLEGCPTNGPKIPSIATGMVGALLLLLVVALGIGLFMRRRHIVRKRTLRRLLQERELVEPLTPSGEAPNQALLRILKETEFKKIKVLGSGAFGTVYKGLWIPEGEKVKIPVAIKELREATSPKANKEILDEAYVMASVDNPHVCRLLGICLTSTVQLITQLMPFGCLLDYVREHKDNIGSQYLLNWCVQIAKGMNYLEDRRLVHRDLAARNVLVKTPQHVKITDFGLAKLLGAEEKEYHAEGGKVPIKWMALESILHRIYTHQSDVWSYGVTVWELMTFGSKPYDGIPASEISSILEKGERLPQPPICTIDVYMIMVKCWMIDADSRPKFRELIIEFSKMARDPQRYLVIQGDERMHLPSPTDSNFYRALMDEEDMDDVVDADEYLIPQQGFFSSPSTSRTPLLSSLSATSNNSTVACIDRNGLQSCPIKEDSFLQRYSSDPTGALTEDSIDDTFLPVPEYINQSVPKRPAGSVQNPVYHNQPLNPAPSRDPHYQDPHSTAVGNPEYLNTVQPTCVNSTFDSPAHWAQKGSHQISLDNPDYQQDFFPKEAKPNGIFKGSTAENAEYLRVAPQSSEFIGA

What is called IC50 is the concentration that gives 50% inhibition. For the molecule `O=C(NCc1cccc(O)c1)c1cc2cc(F)ccc2[nH]1` [Compound 1a], the half-maximal inhibitory concentration (IC50) in [1] is 35 ± 0.59 µM; in [2] (column head: Src at 100 μM, read-out: Src IC50), 40 µM. Further, in series [3], the “toxicity in mice (weight loss), MTD study” value is listed as “less toxic in mice than compound 2k from Example 4”.
A word on the inhibition: it is the relative decrease from the control value, in per cent. Read a high inhibition as a strong effect. On to `O=C(NCc1cc(C(F)(F)F)ccc1F)c1cc2cc(F)ccc2[nH]1` [Compound 1aaa], for which, in series [4], the inhibition at 10 µM was 12%.
`O=C(NCc1ccccc1)c1cc2cc(F)ccc2[nH]1` [Compound 1bb] returned an IC50 in [1] of 82 ± 3.5 µM. The same molecule came in with an inhibition at 10 µM in series [5] of 19%.
With `O=C(NCc1ccccc1F)c1cc2cc(F)ccc2[nH]1` [Compound 1bbb], the IC50 in [1] was > 100 µM.
The molecule `O=C(N[C@H](c1ccccc1)[C@H](O)c1ccccc1)c1cc2cc(F)ccc2[nH]1` [Compound 1cc] yielded an IC50 in [1] of 30 ± 0.66 µM. In series [5], the inhibition at 10 µM is 19%.
With `COc1ccc(NC(=O)c2cc3cc(F)ccc3[nH]2)cc1CO` [Compound 1cccc], the IC50 in series [1] is > 100 µM. The inhibition at 10 µM worked out at 20% in series [4] and 19% in series [5].
`O=C(N[C@@H](c1ccccc1)[C@@H](O)c1ccccc1)c1cc2cc(F)ccc2[nH]1` [Compound 1dd] had a half-maximal inhibitory concentration (IC50) in [1] of 33 ± 0.78 µM. In series [5], the inhibition at 10 µM was found to be 41%.
`O=C(NCc1cc(O)cc(OCc2ccccc2)c1)c1cc2cc(F)ccc2[nH]1` [Compound 1dddd] displayed an inhibition at 10 µM in series [4] of 16%.
Still for that read-out and setting: for `COc1cc(CNC(=O)c2cc3cc(F)ccc3[nH]2)cc(OC)c1` [Compound 1hhhh] the value was 17%; for `O=C(NCc1ccc(OCc2ccccc2)c(O)c1)c1cc2cc(F)ccc2[nH]1` [Compound 1jjjj], 15%.
`O=C(Nc1ccccc1O)c1cc2cc(F)ccc2[nH]1` [Compound 1n] returned an inhibition at 10 µM in series [6] of 12%.
On to `O=C(NCc1ccc(CO)cc1)c1cc2cc(F)ccc2[nH]1` [Compound 1oooo], for which, in series [1], it took 74 ± 2.7 µM to reach half-maximal inhibition (IC50). In addition, the inhibition at 10 µM in [5] is 33%; in [6], 10%.
In turn, `O=C(Nc1cc(O)cc(O)c1)c1cc2cc(F)ccc2[nH]1` [Compound 1r] showed an inhibition at 10 µM in [6] of 11%.
The same measure, in the same setting: for `COc1cc(OC)c(CNC(=O)c2cc3cc(F)ccc3[nH]2)c(OC)c1` [Compound 1rr] the value was 12%.
For `O=C(NCc1ccc(Cl)cc1Cl)c1cc2cc(F)ccc2[nH]1` [Compound 1ss], 10 µM produced 12% inhibition in series [4].
Take `O=C(NCc1ccc(F)cc1)c1cc2cc(F)ccc2[nH]1` [Compound 1uuu]: the figures for the inhibition at 10 µM in [4] and in [7] were 13% and 16%, respectively.
The molecule `O=C(Nc1ccccc1CO)c1cc2cc(F)ccc2[nH]1` [Compound 1xxx] came in with an inhibition at 10 µM in [4] of 12%.
`O=C(NCc1ccccc1Cl)c1cc2cc(F)ccc2[nH]1` [Compound 1yy]: the inhibition at 10 µM in series [4] was 10%; in [7] it was 12%.
Molecule `O=C(Nc1cccc(CO)c1)c1cc2cc(F)ccc2[nH]1` [Compound 1yyy] came in with an IC50 in series [1] of 104 ± 10 µM. The molecule also gave an inhibition at 10 µM in [5] of 11%.
The matching figures for `O=C(NCc1cccc(F)c1)c1cc2cc(F)ccc2[nH]1` [Compound 1z]: 15 ± 1.6 µM and 26%.
Molecule `COc1ccc(NC(=O)c2[nH]c3ccc(F)cc3c2-c2ccccc2)cc1CO` [Compound 2f] displayed an IC50 in [1] of 13 ± 0.46 µM. Also, the inhibition at 10 µM in [5] turned out to be 18%; in series [7] it was 11%.
As to `O=C(Nc1cccc(O)c1)c1cc2ccc(O)cc2cc1O` [Compound 2f], the IC50 in [2] (Example 3 hydroxynaphthalene series, 200 μM ATP, read-out: IC50) was 16 µM.
In the case of `O=C(NCc1cccc(F)c1)c1[nH]c2ccc(F)cc2c1-c1ccccc1` [Compound 2g], in [1], the midpoint of inhibition, the IC50, lay at 13 ± 0.56 µM.
On to `O=C(NCc1ccc(Cl)cc1)c1[nH]c2ccc(F)cc2c1-c1ccccc1` [Compound 2gg], for which, in series [4], the inhibition at 10 µM came out at 12%.
Regarding `O=C(NCc1ccccc1F)c1[nH]c2ccc(F)cc2c1-c1ccccc1` [Compound 2s], inhibition in series [1] was half-maximal at 26 ± 0.34 µM (IC50). The inhibition at 10 µM in series [5] amounted to 33%; in series [6], 10%; in series [7], 11%.
Take `O=C(NCc1cc(C(F)(F)F)cc(C(F)(F)F)c1)c1[nH]c2ccc(F)cc2c1-c1ccccc1` [Compound 2w]: testing at 10 µM in series [4] gave an inhibition of 12%.
On to `O=C(NCc1cccc(O)c1)c1[nH]c2ccc(F)cc2c1-c1ccccc1` [Compound 3q], for which, in [1], the IC50 turned out to be 30 ± 0.34 µM.
Consider `Cc1cc(O)c2c(c1)C(=O)c1cc(O)cc(O)c1C2=O` [Emodin], for which the “competition with ATP” value in [8] is on record as “ATP-competitive”.
For the molecule `N=c1oc2c(O)cccc2cc1C(=O)Nc1cccc(O)c1` [Iminochromene 9TA, iminochromene 9TA, reference compound], the “% Inhibition at 100 μM (std. dev.)” value in series [2] (Example 3 hydroxynaphthalene series and published inhibitors, 100 μM inhibitor, 198 μM ATP) is given as 30 (+/−15) %.
Turning to `COc1cccc2c1C(=O)c1c(O)c3c(c(O)c1C2=O)C[C@@](O)(C(=O)CO)C[C@@H]3O[C@H]1C[C@H](N)[C@H](O)[C@H](C)O1` [doxorubicin], the “efficacy relative to other cancer drugs in tumor cell culture” value in series [9] was “more effective than etoposide and cisplatin”.
Still for that read-out and setting: in the case of `CC(=O)O[C@H]1C(=O)[C@@]2(C)[C@H]([C@H](OC(=O)c3ccccc3)[C@]3(O)C[C@H](OC(=O)[C@H](O)[C@@H](NC(=O)c4ccccc4)c4ccccc4)C(C)=C1C3(C)C)[C@]1(OC(C)=O)CO[C@@H]1C[C@@H]2O` [taxol] it was “more effective than etoposide and cisplatin”.

The record behind these values is patent publication US7427608B2, “Protection against and treatment of hearing loss” (The Research Foundation of State University of New York, priority 2001, dated 2008).
